According to patent US7291629B2, “Neurotrophin antagonist compositions” (Painceptor Pharma Corporation, priority 1996, dated 2007):

tested on: p75 and trkA receptors; test: Binding of [125I]NGF to PC12 cells in the presence and absence of BDNF; conditions: 100 uM compound, 0.5 nM 125I-NGF
Protocol: The ability of the compounds of Formula I to antagonize NGF interaction with the p75 and trkA receptors was determined as follows.
NGF was labelled using the Lactoperoxidase labelling method (Sutter et al., J. Biol. Chem., 1979) and the labelled NGF was separated from radiolabelling agents and free iodide using a PD-10 Sephadex G-25 column.
PC12 cells were grown in RPMI with 10% heat inactivated donor horse serum and 5% fetal calf serum. Cells were harvested for binding by washing off the media with calcium-magnesium free balanced salt solution (Gey's solution) and incubated in 5 ml Gey's solution at 37° C. for 15 minutes. Cells were pelleted by centrifugation and suspended in Hepes-Krebs Ringer buffer (HKR) (10 mM Hepes pH7.35, containing 125 mM NaCl, 4.8 mM KCl, 1.3 mM CaCl2, 1.2 mM MgSO4, 1.2 mM KH2PO4, 1 mg/ml BSA and 1.0 mg/ml glucose) at a concentration of 4×10^6/ml and kept on ice. (C) NGF Binding The reaction was performed in a 96 well plate. Suspended cells (150 ul, […]) were added to ^125I-NGF (final concentration of 0.5 nM) and the competing compound of Formual I in a final volume of 300 ul of HKR buffer. The plates were incubated with shaking for 2 hr at 4° C. At the end of the incubation, 100 ul aliquots of the reaction sample were added to 400 ul microcentrifuge tubes containing 200 ul of 10% glycerol in HKR buffer. The tubes were centrifuged for 1 minute at ˜5000 rpm and the tip containing the cell pellet was cut off. Radioactivity bound to the cells was determined by measuring the ^125I-NGF associated with each pellet in a gamma counter. Specific binding is calculated as the difference between the amount of ^125I-NGF bound in the absence (total) and presence (NSB) of 50 nM unlabeled NGF. TrkA binding is determined similarly except 10 nM BDNF is added to all reactions. Table 1 summarizes the values obtained from this experiment for the inhibition of binding of NGF to P75 and TrkA by compounds of Formula I.

Point of comparison: “3-Methyl-3-(1,3-dioxo-5-nitro(1H,3H)benz[de]isoquinolyl)butyric acid methylester”, “% Inhibition at 100 uM” value 17%. Against it:
- 3-Amino-7,4-bis(ethyl-1,3-dioxo-1,2,3,4-tetrahydrobenzo[i]isoquinoline — higher, 23%
- Cc1ccc(S(=O)(=O)Nc2cc(C)c(C)cc2N2C(=O)CC3C=CC=C4C=CC=CC43C2=O)cc1 (stereo not drawn) [1,3-Dioxo-2-[4,5-dimethyl-2-(4-methylphenylsulphonamido)phenyl]-1,2,3,4-tetrahydrobenzo[i]isoquinoline] — higher, 19%
- O=C1c2cccc3cc([N+](=O)[O-])cc(c23)C(=O)N1CCc1ccccn1 [1,3-Dioxo-5-nitro-N-(pyrid-2-ylethyl)-1,2,3,4-tetrahydro[i]isoquinoline] — higher, 28%
- O=C1c2cccc3cc([N+](=O)[O-])cc(c23)C(=O)N1CCCN1CCOCC1 [1,3-Dioxo-5-nitro-n-propylmorpholino-1,2,3,4-tetrahydrobenzo[i]isoquinoline] — lower, 11%
- O=C1CC2C=C(Sc3ccccc3)C=C3C=CC=CC32C(=O)N1CCc1ccccn1 (stereo not drawn) [1,3-Dioxo-6-phenylmercapto-N-(pyrid-2-ylethyl)-1,2,3,4-tetrahydro-benzo[i]isoquinoline] — higher, 33%
- O=C1c2cccc3cc([N+](=O)[O-])cc(c23)C(=O)N1CC1CCCO1 (stereo not drawn) [1,3-Dioxo-N-methyltetrahydrofurfur-2-yl-5-nitro-1,2,3,4-tetrahydro[i]isoquinoline] — higher, 18%
- Nc1ccccc1N1C(=O)c2cccc3cccc(c23)C1=O [2-(2-Aminophenyl)naphthalimide] — higher, 20%
- O=C1c2cccc3cccc(c23)C(=O)N1c1ccccc1O [2-(2-Hydroxyphenyl)naphthalimide] — lower, 13%
- O=C1CC2C=CC=C3C=CC=CC32C(=O)N1c1nc2ccccc2[nH]1 (stereo not drawn) [2-(Benzimidaz-2-yl)-1,3-dioxo-1,2,3,4-tetrahydrobenzo[i]isoquinoline] — higher, 23%
- Cc1ccc(S(=O)(=O)Nc2cc(Cl)c(Cl)cc2N2C(=O)c3cccc4cccc(c34)C2=O)cc1 [2-[2-(4-Methylbenzsulphonamido)-4,5-dichlorophenyl]naphthalimide] — higher, 26%
- Cc1ccc(S(=O)(=O)Nc2ccccc2N2C(=O)c3cccc4c(N(C)C)ccc(c34)C2=O)cc1 [2-{2-(4-methylphenylsulphonamido)phenyl}-6-(N,N-dimethylamino)-naphthalimide] — higher, 29%
- O=C(O)CCN1C(=O)c2cccc3cc([N+](=O)[O-])cc(c23)C1=O [3-Nitro-1,8-(N-propioncarboxylate)succinamidonapthalene] — higher, 25%
- CCCCN1C(=O)c2cccc3cc(N)cc(c23)C1=O [5-Amino-N-butylnaphthalimide] — lower, 13%
- O=C1c2cccc3cc(Br)cc(c23)C(=O)N1Cc1cccnc1 [5-Bromo-1,3-dioxo-N-methylpyrid-3-yl-1,2,3,4-tetrahydrobenzo[i]isoquinoline] — higher, 28%
- CN(C)c1ccc2c3c(cccc13)C(=O)N(c1nc3ccccc3[nH]1)C2=O [6-(N,N-Dimethylamino)-2-(benzimidazol-2-yl)naphthalimide] — higher, 36%
- O=C1c2cccc3c([N+](=O)[O-])ccc(c23)C(=O)N1Cc1ccco1 [6-Nitro-2-(furfuryl)naphthalimide] — the same, 17%
- O=C1c2cccc3c([N+](=O)[O-])ccc(c23)C(=O)N1CCc1ccccn1 [6-Nitro-2-(pyrid-2-ylethyl)naphthalimide] — lower, 11%
- O=C1c2cccc3c([N+](=O)[O-])ccc(c23)C(=O)N1Cc1cccnc1 [6-Nitro-2-(pyrid-3-methyl)naphthalimide] — higher, 23%
- O=C1c2cccc3c([N+](=O)[O-])ccc(c23)C(=O)N1CC1CCCO1 (stereo not drawn) [6-Nitro-2-(tetrahydrofuran-2-ylmethyl)naphthalimide] — higher, 28%
- CCOC(=O)CN1C(=O)c2cccc3cc([N+](=O)[O-])cc(c23)C1=O [Ethyl-5-nitro-1,3-dioxo-1H-benz[de]isoquinoline-2-3H-acetate] — lower, 16%
- O=C1c2cccc3cccc(c23)C(=O)N1CCO [N-(1,3-Dioxo-1,2,3,4-tetrahydrobenzo[i]isoquinoline)aminoethanol] — higher, 27%
- O=C1c2cccc3cc([N+](=O)[O-])cc(c23)C(=O)N1CCO [N-(1,3-Dioxo-5-nitro-1,2,3,4-tetrahydrobenzo[i]isoquinoline)-aminoethanol] — higher, 44%
- O=C(O)CN1C(=O)c2cccc3cc([N+](=O)[O-])cc(c23)C1=O [N-(1,3-Dioxo-5-nitro-1,2,3,4-tetrahydrobenzo[i]isoquinoline)acetic acid] — higher, 58%
- O=C1c2cccc3c(Sc4ccccc4)ccc(c23)C(=O)N1CCO [N-(1,3-Dioxo-6-phenylmercapto-1,2,3,4-tetrahydrobenzo[i]isoquinoline)aminoethanol] — lower, 3%
- Cc1cc(C)cc(N2C(=O)c3cccc4cccc(c34)C2=O)c1 [N-(3,5-Dimethylphenyl)-1,8-naphthalimide] — lower, 9%
- CCOc1ccc(N2C(=O)c3cccc4cc([N+](=O)[O-])cc(c34)C2=O)cc1 [N-(4-Ethoxyphenyl)-5-nitronaphthalimide] — higher, 18%
- O=C1c2cccc3cccc(c23)C(=O)N1CCc1ccccn1 [N-(Pyrid-2-ylethyl)-1,8-naphthalimide] — higher, 35%
- O=C1c2cccc3cccc(c23)C(=O)N1Cc1ccccn1 [N-(Pyrid-2-ylmethyl)naphthalimide] — lower, 10%
- O=C1c2cccc3cccc(c23)C(=O)N1Nc1ccccc1 [N-Anilino-1,8-naphthalimide] — lower, 1%
- O=C1c2cccc3cccc(c23)C(=O)N1Cc1ccco1 [N-Furfuryl-1,8-naphthalimide] — higher, 36%
- CN1C(=O)c2cccc3cccc(c23)C1=O [N-Methylnaphthalimide] — lower, 11%
- CCCCCCCCN1C(=O)c2cccc3cc([N+](=O)[O-])cc(c23)C1=O [N-Octyl-5-nitronaphthalimide] — higher, 29%
- NN1C(=O)c2cccc3cccc(c23)C1=O [Naphthalicacid-N-aminoimide] — higher, 27%
- Naphthalicacid-N,N′-diimide — lower, 13%

tested on: L5/L6 Nerve Ligated and Sham-Operated Rats; test: not given; conditions: i.th; L5/L6 nerve ligated rats

CN1CC[C@]23c4c5ccc(O)c4O[C@H]2[C@@H](O)C=C[C@H]3[C@H]1C5 [Morphine, morphine, reference compound] was tested, and the “A50(95% C.L.) Tail Flick- Ligated” value was 2.3 µg.

same assay, conditions: i.th; sham-operated rats

CN1CC[C@]23c4c5ccc(O)c4O[C@H]2[C@@H](O)C=C[C@H]3[C@H]1C5 [Morphine, morphine, reference compound] was tested, and the “A50(95% C.L.) Tail Flick- Sham” value was 1.45 µg.

tested on: L5/L6 Nerve Ligated rats; test: Tactile allodynia, nerve ligation injury model (von Frey paw withdrawal threshold); conditions: i.p.

CN1CC[C@]23c4c5ccc(O)c4O[C@H]2[C@@H](O)C=C[C@H]3[C@H]1C5 [Morphine, morphine, reference compound] was tested, and the “A50(95% C.L.) Allodynia- Ligated” value was 7.1 mg/kg.

same assay, conditions: i.th

CN1CC[C@]23c4c5ccc(O)c4O[C@H]2[C@@H](O)C=C[C@H]3[C@H]1C5 [Morphine, morphine, reference compound] was tested, and the “A50(95% C.L.) Allodynia- Ligated” value was over 100 µg.
